{"source": "patent US7276608B2", "about": "“Tetrahydroquinoline derivatives as cannabinoid receptor modulators” (Bristol-Myers Squibb Company, priority 2003, dated 2007)", "origin": "cited, not measured here", "key": {"[1]": {"details": "chronic administration for two weeks"}, "[2]": {"details": "16 week trial period, Phase IIb"}}, "data": [{"smiles": "Cc1c(C(=O)NN2CCCCC2)nn(-c2ccc(Cl)cc2Cl)c1-c1ccc(I)cc1", "note": "[AM-251]", "values": [{"measurement": "body weight", "setting": "[1]", "value": "substantial body weight reduction"}]}, {"smiles": "Cc1c(C(=O)NN2CCCCC2)nn(-c2ccc(Cl)cc2Cl)c1-c1ccc(Cl)cc1", "note": "[SR-141716]", "values": [{"measurement": "body weight in human subjects", "setting": "[2]", "value": "dose-dependently reduced body weight"}]}]}
